Assay results reported in patent US7687486B2, “Selective estrogen receptor modulators” (Florida Agricultural & Mechanical University, priority 2003, dated 2010).
Counter-ions that a name gives are not always drawn.

Tested on: MCF-7 breast cancer cell line
Assay: MCF-7 breast cancer cell proliferation assay (cell counting after about 72 hours)
Type: cell-based, human
Conditions: Table 1, Structure II compounds group; about 72 hours incubation, HCl salts; read-out: IC50 (micromolar scale) MCF-7 breast cancer cell line
Description: MCF-7 (ATCC HTB-22) cells, purchased from ATCC (Rockville, Md.), were grown in RPMI medium 1640 with 10% FBS (GIBCO, Grand Island, N.Y.) and 1% Antibiotic-Antimycotic (GIBCO, Grand Island, N.Y.) in an incubator (NUAIRE NU-1500, Plymouth, Minn.) with 5% CO2 and 95% air at about 37° Celsius. Cells were grown as monolayer, doubling time is from about 19 to about 24 hours. The stock solution of the test compound was prepared at 1 mg/ml drug concentration. The stock solution was diluted serially to obtain the desired drug concentrations, of from about 20 to about 200 μg/ml. Plates with twelve wells (5 ml capacity/well) were employed for all the experiments. In a typical experiment, each well contained 1×10^5 initial cells and about 100 μl drug solution in a total volume of about 2 ml media. The final concentrations of compounds were from about 0 to about 100 μg/ml in triplicate sample wells. The plates were incubated at 5% CO2 and 37° C. for about 72 hours. After incubation, cells were washed with PBS 1×, treated by 0.5 ml trypsin-EDTA for about 10 minutes and the cells were suspended by adding about 1.5 ml medium. Cells were counted by using a hemacytometer under a microscope. The data was converted to micromolar concentration using the various molecular weights and represent the mean values and standard errors.
Tables 1-4 illustrate the IC50 (50% inhibitory concentration) values of compounds described in this application against the MCF-7 breast cancer cell line.

Row | Compound | IC50 [µM]
1 | CC(C)N(CCOc1ccc2c(c1)CC[C@@H]1[C@@H]2CC[C@]2(C)[C@@H](O)CC[C@@H]12)C(C)C [(17β)-3-[2-diisopropylamino]-ethoxy]-]-Δ^1,3,5(10)-estrien-17-ol] | 5.6
2 | C[C@]12CC[C@@H]3c4ccc(OCCN5CCOCC5)cc4CC[C@H]3[C@@H]1CC[C@@H]2O [(17β)-3-[2-morpholinyl]-ethoxy]-]-Δ^1,3,5(10)-estrien-17-ol] | 19.8
3 | C[C@]12CC[C@@H]3c4ccc(OCCN5CCCC5)cc4CC[C@H]3[C@@H]1CC[C@@H]2O [(17β)-3-[2-pyrrolidinylamino]-ethoxy]-]-Δ^1,3,5(10)-estrien-17-ol] | 10.8
4 | CN(C)CCOc1ccc2c(c1)CC[C@@H]1[C@@H]2CC[C@]2(C)[C@@H](O)CC[C@@H]12 [(17β)-3-[2-dimethylamino]-ethoxy]-Δ^1,3,5(10)-estrien-17-ol] | 16.2
5 | CC/C(=C(\c1ccc(O)cc1)c1ccc(OCCN(C)C)cc1)c1ccccc1 [4-Hydroxytamoxifen HCl salt, Trans-4-Hydroxytamoxifen, reference compound] | 9
6 | C[C@]12CC[C@@H]3c4ccc(OCCN5CCCCC5)cc4CC[C@H]3[C@@H]1CC[C@@H]2O [(17β)-3-[2-piperidinyl]-ethoxy]-]-Δ^1,3,5(10)-estrien-17-ol] | 4.1
7 | CCN(CC)CCOc1ccc2c(c1)CC[C@@H]1[C@@H]2CC[C@]2(C)[C@@H](O)CC[C@@H]12 [(17β)-3-[2-diethylamino]-ethoxy]-]-Δ^1,3,5(10)-estrien-17-ol] | 8.7

Same assay, conditions: Table 2, Structure III compounds group; about 72 hours incubation, HCl salts; read-out: IC50 (micromolar scale) MCF-7 breast cancer cell line

Row | Compound | IC50 [µM]
8 | C#CC1(O)CCC2C3CCc4cc(OCCN5CCCCC5)ccc4C3CCC21C (stereo not drawn) [3-[2-piperidinyl]-ethoxy]-]-Δ^1,3,5(10)-estrien-17α-ethynyl-17β-ol] | 6.1
9 | C#CC1(O)CCC2C3CCc4cc(OCCN(C)C)ccc4C3CCC21C (stereo not drawn) [3-[2-dimethylamino]-ethoxy]-]-Δ^1,3,5(10)-estrien-17α-ethynyl-17β-ol] | 9.1
10 | 3-[2-pyrrolidinylamino]-ethoxy]-]-Δ^1,3,5(10)-estrien-17α-ethynyl-17βol | 6.4
11 | CC/C(=C(\c1ccc(O)cc1)c1ccc(OCCN(C)C)cc1)c1ccccc1 [4-Hydroxytamoxifen HCl salt, Trans-4-Hydroxytamoxifen, reference compound] | 9.5
12 | C#C[C@]1(O)CC[C@H]2[C@@H]3CCc4cc(OCCN(CC)CC)ccc4[C@H]3CC[C@@]21C [3-[2-diethylamino]-ethoxy]-]-Δ^1,3,5(10)-estrien-17α-ethynyl-17β-ol] | 7.3
13 | C#CC1(O)CCC2C3CCc4cc(OCCN(C(C)C)C(C)C)ccc4C3CCC21C (stereo not drawn) [3-[2-diisopropylamino]-ethoxy]-]-Δ^1,3,5(10)-estrien-17α-ethynyl-17β-ol] | 8.3
14 | C#CC1(O)CCC2C3CCc4cc(OCCN5CCOCC5)ccc4C3CCC21C (stereo not drawn) [3-[2-morpholinyl]-ethoxy]-]-Δ^1,3,5(10)-estrien-17α-ethynyl-17β-ol] | 21.5

Same assay, conditions: Table 3, Structure IV compounds group; about 72 hours incubation, HCl salts; read-out: IC50 (micromolar scale) MCF-7 breast cancer cell line

Row | Compound | IC50 [µM]
15 | C[C@]12CC[C@@H]3c4ccc(OCCN5CCCCC5)cc4CC[C@H]3[C@@H]1CCC2=O [3-[2-piperidinyl]-ethoxy]-]-Δ^1,3,5(10)-estrien-17-one] | 5.1
16 | CCN(CC)CCOc1ccc2c(c1)CC[C@@H]1[C@@H]2CC[C@]2(C)C(=O)CC[C@@H]12 [3-[2-diethylamino]-ethoxy]-]-Δ^1,3,5(10)-estrien-17-one] | 7.5
17 | C[C@]12CC[C@@H]3c4ccc(OCCN5CCOCC5)cc4CC[C@H]3[C@@H]1CCC2=O [3-[2-morpholinyl]-ethoxy]-]-Δ^1,3,5(10)-estrien-17-one] | 20.8
18 | 3-[2-pyrrolidinylamino]-ethoxy]-]-Δ^1,3,5(10)-estrien-17-one | 10.6
19 | CC/C(=C(\c1ccc(O)cc1)c1ccc(OCCN(C)C)cc1)c1ccccc1 [4-Hydroxytamoxifen HCl salt, Trans-4-Hydroxytamoxifen, reference compound] | 10.6
20 | CC(C)N(CCOc1ccc2c(c1)CC[C@@H]1[C@@H]2CC[C@]2(C)C(=O)CC[C@@H]12)C(C)C [3-[2-diisopropylamino]-ethoxy]-]-Δ^1,3,5(10)-estrien-17-one] | 9.2
21 | CN(C)CCOc1ccc2c(c1)CC[C@@H]1[C@@H]2CC[C@]2(C)C(=O)CC[C@@H]12 [3-[2-dimethylamino]-ethoxy]-]-Δ^1,3,5(10)-estrien-17-one] | 37.8

Tested on: breast cancer
Assay: not given
Conditions: adjuvant therapy; cited from earlier work

Row | Compound | reduction in the recurrence of breast cancer
22 | CN(C)CCOc1ccc(/C(=C(/CCCl)c2ccccc2)c2ccccc2)cc1 [toremifene] | not found to exhibit a statistically significant reduction in the recurrence of breast cancer

Tested on: advanced breast cancer
Assay: not given
Conditions: tamoxifen 20 mg/day; cited from earlier work

Row | Compound | response rate [%]
23 | CC/C(=C(\c1ccccc1)c1ccc(OCCN(C)C)cc1)c1ccccc1 [tamoxifen] | 44

Same assay, conditions: toremifene 60 mg/day; cited from earlier work

Row | Compound | response rate [%]
24 | CN(C)CCOc1ccc(/C(=C(/CCCl)c2ccccc2)c2ccccc2)cc1 [toremifene] | 50

Same assay, conditions: toremifene 200 mg/day; cited from earlier work

Row | Compound | response rate [%]
25 | CN(C)CCOc1ccc(/C(=C(/CCCl)c2ccccc2)c2ccccc2)cc1 [toremifene] | 48
